Experimental data reported in BindingDB's records for doi:10.1016/j.bmcl.2007.11.060 (Amgen, 2008).

Experiment: Antagonist activity at CXCR3 assessed as ITAC-mediated migration of human PBMC in presence of 100% human plasma

IC50 [µM] | SMILES
0.072 | CCS(=O)(=O)CCN(C(=O)Cc1ccc(F)c(C(F)(F)F)c1)[C@H](C)c1nc2ccccn2c1-c1ccc(C#N)cc1 [(R)-N-(1-(3-(4-cyanophenyl)H-imidazo[1,2-a]pyridin-2-yl)ethyl)-N-(2-(ethylsulfonyl)ethyl)-2-(4-fluoro-3-(trifluoromethyl)phenyl)acetamide]
0.088 | CCS(=O)(=O)CCN(C(=O)Cc1ccc(F)c(C(F)(F)F)c1)[C@H](C)c1nc2c(c(=O)n1-c1ccc(C#N)cc1)CCCN2C [(R)-N-(1-(3-(4-cyanophenyl)-8-methyl-4-oxo-3,4,5,6,7,8-hexahydropyrido[2,3-d]pyrimidin-2-yl)ethyl)-N-(2-(ethylsulfonyl)ethyl)-2-(4-fluoro-3-(trifluoromethyl)phenyl)acetamide]
0.072 | CCS(=O)(=O)CCN(C(=O)Cc1ccc(F)c(C(F)(F)F)c1)[C@H](C)c1nc2ccccc2cc1-c1ccc(C#N)cc1 [(R)-N-(1-(3-(4-cyanophenyl)quinolin-2-yl)ethyl)-N-(2-(ethylsulfonyl)ethyl)-2-(4-fluoro-3-(trifluoromethyl)phenyl)acetamide]
0.048 | CCS(=O)(=O)CCN(C(=O)Cc1ccc(F)c(C(F)(F)F)c1)[C@H](C)c1nc2ncccc2cc1-c1ccc(C#N)cc1 [(R)-N-(1-(3-(4-cyanophenyl)-1,8-naphthyridin-2-yl)ethyl)-N-(2-(ethylsulfonyl)ethyl)-2-(4-fluoro-3-(trifluoromethyl)phenyl)acetamide]
0.521 | CCS(=O)(=O)CCN(C(=O)Cc1ccc(F)c(C(F)(F)F)c1)[C@H](C)c1nc2ccccc2n1-c1ccc(C#N)cc1 [(R)-N-(1-(1-(4-cyanophenyl)-1H-benzo[d]imidazol-2-yl)ethyl)-N-(2-(ethylsulfonyl)ethyl)-2-(4-fluoro-3-(trifluoromethyl)phenyl)acetamide]
